Assays:
MM1.S cells = experiment: Antiproliferative activity, MM1.S cells; type: cell-based; conditions: Homo sapiens; for GI50: Table 2, read-out: GI50 (MM1S)
Procedure: Cellular activity of promising compounds is assessed using MM.1S and MV4-11 AML cells using c-Myc levels as biomarker (6-12 hr treatment) and antiproliferative activity (48-72 hr treatment) as described (Ciceri et al., Dual kinase-bromodomain inhibitors for rationally designed polypharmacology. Nat Chem Biol 2014).

BRD4 = BRD4 (Homo sapiens (Human), UniProt O60885); experiment: BRD4 DSF thermal shift (ΔTm); type: binding; conditions: for BRD4 DSF (ΔTm): Table 2; for DSF ΔTm: Table 1

SMILES | BRD4 DSF (ΔTm) (BRD4) | other results
Cc1cnc(Nc2ccc(N3CCN(C)CC3)c(F)c2)cc1Nc1ccc(Cl)c(NS(=O)(=O)C(C)(C)C)c1 [MA9-036, N-(2-Chloro-5-((2-((3-fluoro-4-(4-methylpiperazin-1-yl)phenyl)amino)-5-methylpyridin-4-yl)amino)phenyl)-2-methylpropane-2-sulfonamide] |  | GI50 (MM1.S cells): 3.12 µM
Cc1cnc(Nc2ccc(OCCN3CCCC3)cc2)nc1Nc1ccc(Cl)c(NS(=O)(=O)C(C)(C)C)c1 |  | DSF ΔTm (BRD4): 12.9 ± 0.1 °C
CN1CCC(c2ccc(Nc3ncc(I)c(Nc4ccc(Cl)c(NS(=O)(=O)C(C)(C)C)c4)n3)cc2F)CC1 [PN1-118, N-(2-Chloro-5-((2-((3-fluoro-4-(1-methylpiperidin-4-yl)phenyl)amino)-5-iodopyrimidin-4-yl)amino)phenyl)-2-methylpropane-2-sulfonamide] | 11.6 °C | GI50 (MM1.S cells): 0.21 µM
Cc1cnc(Nc2cc(F)cc(N3CCN(C)CC3)c2)nc1Nc1cccc(NS(=O)(=O)C(C)(C)C)c1 [drawing 14] |  | IC50 (MM1.S cells; Table 1 comments): 0.22 µM; DSF ΔTm (BRD4): 11.1 °C
Cc1cnc(Nc2ccc(C3CCN(C)CC3)c(F)c2)nc1Nc1cc(NS(=O)(=O)C(C)(C)C)ncn1 [MA10-174, N-(6-((2-((3-fluoro-4-(1-methylpiperidin-4-yl)phenyl)amino)-5-methylpyrimidin-4yl)amino)pyrimidin-4-yl)-2-methylpropane-2-sulfonamide] | 0.9 °C | 
Cc1cnc(Nc2ccc(OCCN3CCCC3)c(F)c2)nc1Nc1cccc(NS(=O)(=O)C(C)(C)C)c1 |  | DSF ΔTm (BRD4): 12.6 ± 0.1 °C
Cc1cnc(Nc2cc(F)c(C3CCN(C)CC3)c(F)c2)nc1Nc1cc(NS(=O)(=O)C(C)(C)C)ncn1 [MA11-009, N-(6-((2-((3,5-difluoro-4-(1-methylpiperidin-4-yl)phenyl)amino)-5-methylpyrimidin-4-yl)amino)pyrimidin-4-yl)-2-methylpropane-2-sulfonamide] | 1.1 °C | 
Cc1cnc(Nc2ccc(N3CCN(C)CC3)c(F)c2)cc1Nc1ccc2c(c1)N(S(=O)(=O)C(C)(C)C)CC2 [MA9-042, N^4-(1-(tert-Butylsulfonyl)indolin-6-yl)-N^2-(3-fluoro-4-(4-methylpiperazin-1-yl)phenyl)-5-methylpyridine-2,4-diamine] | 6.1 °C | 
Cc1cc(Nc2ncc(C)c(Nc3ccc(Cl)c(NS(=O)(=O)C(C)(C)C)c3)n2)c(F)cc1C1CCN(C)CC1 [PN1-119, N-(2-Chloro-5-((2-((2-fluoro-5-methyl-4-(1-methylpiperidin-4-yl)phenyl)amino)-5-methylpyrimidin-4-yl)amino)phenyl)-2-methylpropane-2-sulfonamide] |  | GI50 (MM1.S cells): 0.39 µM
CN1CCN(c2ccc(Nc3ncc(F)c(Nc4ccc(Cl)c(NS(=O)(=O)C(C)(C)C)c4)n3)cc2)CC1 |  | DSF ΔTm (BRD4): 9.6 ± 0.9 °C
Cc1cnc(Nc2cc(F)c(C3CCN(C)CC3)cn2)nc1Nc1ccc2ccn(S(=O)(=O)C(C)(C)C)c2n1 [MA10-149, N4-(1-(tert-butylsulfonyl)-1H-pyrrolo[2,3-b]pyridin-6-yl)-N2-(4-fluoro-5-(1-methylpiperidin-4-yl)pyridin-2-yl)-5-methylpyrimidine-2,4-diamine] | 6.2 °C | 
Cc1cnc(Nc2cc(F)c(N3CCN(C)CC3)c(F)c2)cc1Nc1ccc(Cl)c(NS(=O)(=O)C(C)(C)C)c1 [MA9-037, N-(2-Chloro-5-((2-((3,5-difluoro-4-(4-methylpiperazin-1-yl)phenyl)amino)-5-methylpyridin-4-yl)amino)phenyl)-2-methylpropane-2-sulfonamide·bisformate] |  | GI50 (MM1.S cells): 2.83 µM
Cc1cnc(Nc2ccc(C3CCN(C)CC3)c(F)n2)nc1Nc1cc(NS(=O)(=O)C(C)(C)C)ncn1 [MA10-179, N-(6-((2-((6-fluoro-5-(1-methylpiperidin-4-yl)pyridin-2-yl)amino)-5-methylpyrimidin-4-yl)amino)pyrimidin-4-yl)-2-methylpropane-2-sulfonamide] | 1.4 °C | 
Cc1cnc(Nc2ccc(OCCN3CCCC3)cc2)nc1Nc1cc(NS(=O)(=O)C(C)(C)C)ncn1 | 1.1 °C | 
Cc1cnc(Nc2ccc(C3CCN(C)CC3)c(F)c2)cc1Nc1ccc2c(c1)N(S(=O)(=O)C(C)(C)C)CC2 [drawing 16] |  | DSF ΔTm (BRD4): 8.9 ± 0.2 °C
Cc1cnc(Nc2ccc(C3CCN(C)CC3)c(F)c2)nc1Nc1ccc2ccn(S(=O)(=O)C(C)(C)C)c2n1 [MA10-148, N4-(1-(Tert-butylsulfonyl)-1H-pyrrolo[2,3b]pyridin-6-yl)-N2-(3-fluoro-4-(1-methylpiperidin-4-yl)phenyl)-5-methylpyrimidine-2,4-diamine] | 7.6 °C | 
CN1CCC(c2ccc(Nc3ncc(C(F)(F)F)c(Nc4ccc(Cl)c(NS(=O)(=O)C(C)(C)C)c4)n3)cc2F)CC1 |  | DSF ΔTm (BRD4): 10.4 ± 0.1 °C
Cc1cnc(Nc2ccc(OCCN3CCCC3)c(F)c2)nc1Nc1ccc(Cl)c(NS(=O)(=O)C(C)(C)C)c1 |  | DSF ΔTm (BRD4): 15.1 ± 0.1 °C
Cc1cnc(Nc2ccc(OCCN3CCCC3)c(F)c2)nc1Nc1cc(NS(=O)(=O)C(C)(C)C)ncn1 [MA10-176, N-(6-((2-((3-fluoro-4-(2-(pyrrolidin-1-yl)ethoxy)phenyl)amino)-5-methylpyrimidin-4-yl)amino)pyrimidin-4-yl)-2-methylpropane-2-sulfonamide] | 1.4 °C | 
Cc1cnc(Nc2cc(F)c(C3CCN(C)CC3)cn2)nc1Nc1cc(NS(=O)(=O)C(C)(C)C)ncn1 [MA10-178, N-(6-((2-((4-fluoro-5-(1-methylpiperidin-4-yl)pyridin-2-yl)amino)-5-methylpyrimidin-4-yl)amino)pyrimidin-4-yl)-2-methylpropane-2-sulfonamide] | 2.8 °C | 
Cc1cnc(Nc2ccc(C3CCN(C)CC3)c(F)c2)nc1Nc1ncc2ccn(S(=O)(=O)C(C)(C)C)c2n1 [MA11-003, N4-(7-(tert-butylsulfonyl)-7H-pyrrolo[2,3-d]pyrimidin-2-yl)-N2-(3-fluoro-4-(1-methylpiperidin-4-yl)phenyl)-5-methylpyrimidine-2,4-diamine] | 8.0 °C | 

The next lines start with results.

BRD4 DSF (ΔTm) (BRD4) | SMILES | other results
11.0 °C | Cc1cnc(Nc2ccc(C3CCN(C)CC3)c(F)n2)nc1Nc1cccc(NS(=O)(=O)C(C)(C)C)c1 [PN2-117, N-(3-((2-((6-Fluoro-5-(1-methylpiperidin-4-yl)pyridin-2-yl)amino)-5-methylpyrimidin-4-yl)amino)phenyl)-2-methylpropane-2-sulfonamide] | GI50 (MM1.S cells): 0.153 µM
9.5 °C | CN1CCC(c2ccc(Nc3ncc(N)c(Nc4ccc(Cl)c(NS(=O)(=O)C(C)(C)C)c4)n3)cc2F)CC1 [PN1-140, N-(5-((5-Amino-2-((3-fluoro-4-(1-methylpiperidin-4-yl)phenyl)amino)pyrimidin-4-yl)amino)-2-chlorophenyl)-2-methylpropane-2-sulfonamide] | GI50 (MM1.S cells): 1.8 µM
13.0 °C | Cc1cnc(Nc2ccc(C3CCN(C)CC3)c(F)c2)nc1Nc1ccc(F)c(NS(=O)(=O)C(C)(C)C)c1 [PN2-118, N-(2-Fluoro-5-((2-((3-fluoro-4-(1-methylpiperidin-4-yl)phenyl)amino)-5-methylpyrimidin-4-yl)amino)phenyl)-2-methylpropane-2-sulfonamide] | GI50 (MM1.S cells): 0.083 µM
1.1 °C | Cc1cnc(Nc2cc(F)ncn2)nc1Nc1ccc(Cl)c(NS(=O)(=O)C(C)(C)C)c1 [PN2-064, N-(2-Chloro-5-((2-((6-fluoropyrimidin-4-yl)amino)-5-methylpyrimidin-4-yl)amino)phenyl)-2-methylpropane-2-sulfonamide] | 
12.1 °C | Cc1cnc(Nc2ccc(C3CCN(C)CC3)c(F)n2)nc1Nc1ccc(F)c(NS(=O)(=O)C(C)(C)C)c1 [PN2-116, N-(2-Fluoro-5-((2-((6-fluoro-5-(1-methylpiperidin-4-yl)pyridin-2-yl)amino)-5-methylpyrimidin-4-yl)amino)phenyl)-2-methylpropane-2-sulfonamide] | GI50 (MM1.S cells): 0.104 µM
6.3 °C | Cc1cnc(Nc2ccc(C3CCN(C)CC3)cc2)cc1Nc1cccc(NS(=O)(=O)C(C)(C)C)c1 [SY3-030, 2-Methyl-N-(3-((5-methyl-2-((4-(1-methylpiperidin-4-yl)phenyl)amino)pyridin-4-yl)amino)phenyl)propane-2-sulfonamide] | 
14.7 °C | Cc1cnc(Nc2cc(F)c(C3CCN(C)CC3)c(F)c2)nc1Nc1ccc(F)c(NS(=O)(=O)C(C)(C)C)c1 [PN2-123, N-(5-((2-((3,5-Difluoro-4-(1-methylpiperidin-4-yl)phenyl)amino)-5-methylpyrimidin-4-yl)amino)-2-fluorophenyl)-2-methylpropane-2-sulfonamide] | GI50 (MM1.S cells): 0.081 µM
14.5 °C | Cc1cnc(Nc2cc(F)c(C3CCNCC3)cn2)nc1Nc1ccc(Cl)c(NS(=O)(=O)C(C)(C)C)c1.Cl [PN2-084, N-(2-Chloro-5-((2-((4-fluoro-5-(piperidin-4-yl)pyridin-2-yl)amino)-5-methylpyrimidin-4-yl)amino)phenyl)-2-methylpropane-2-sulfonamide hydrochloride] | 
12.4 °C | Cc1cnc(Nc2cc(F)c(C3CCN(C)CC3)cn2)nc1Nc1cccc(NS(=O)(=O)C(C)(C)C)c1 [PN2-103, N-(3-((2-((4-Fluoro-5-(1-methylpiperidin-4-yl)pyridin-2-yl)amino)-5-methylpyrimidin-4-yl)amino)phenyl)-2-methylpropane-2-sulfonamide] | 
12.3 °C | Cc1cnc(Nc2ccc(C3CCN(C)CC3)cn2)nc1Nc1ccc(Cl)c(NS(=O)(=O)C(C)(C)C)c1 [PN2-081, N-(2-Chloro-5-((5-methyl-2-((5-(1-methylpiperidin-4-yl)pyridin-2-yl)amino)pyrimidin-4-yl)amino)phenyl)-2-methylpropane-2-sulfonamide] | 
11.5 °C | Cc1cnc(Nc2ccc(N3CCN(C)CC3)cn2)nc1Nc1ccc(Cl)c(NS(=O)(=O)C(C)(C)C)c1 [PN2-091, N-(2-Chloro-5-((5-methyl-2-((5-(4-methylpiperazin-1-yl)pyridin-2-yl)amino)pyrimidin-4-yl)amino)phenyl)-2-methylpropane-2-sulfonamide] | 
